Assay results taken from patent EP4563571A1, “PRMT5 INHIBITORS” (Beijing Earthwise Technology Co., Ltd., priority 2022, dated 2024).

tested on: HCT116^MTAP Deletion cells; test: Anti-proliferation assay on cells (Cell-Titer Glo, 10 days); assay type: cell-based; conditions: 240 h, HCT116^MTAP Deletion cells, 10 days incubation, CTG readout; read-out: HCT116^MTAP Deletion GI50
Experimental: HCT116^MTAP Deletion cells were from Pharmaron (China); HCT116 cells were from ATCC; McCoy's 5A medium was purchased from Invitrogen (USA); penicillin-streptomycin and fetal bovine serum were purchased from Gibco (USA); a 384-well plate was purchased from PerkinElmer (USA); and Cell-Titer Glo reagent was purchased from Promega (USA).
Compound dissolution: All the compounds were dissolved in dimethyl sulfoxide (DMSO) and then stored. The compounds were stored at room temperature in a dry condition for 3 months for short term storage or at -20 °C for long term storage.
Cell culture and passaging
The cells were cultured strictly in accordance with ATCC requirements. The cell culture medium (McCoy's 5A medium + 10% fetal bovine serum + 1% penicillin + streptomycin) was transferred to a 15 mL centrifuge tube and centrifuged at 1000 rpm for 5 min. The supernatant was removed. The cells were resuspended with complete culture medium, inoculated into a culture dish at the required density, and cultured in an incubator at 37 °C, 95% humid air, and 5% carbon dioxide. The culture medium was replenished or the cells were passaged every 2-3 days depending on the cell growth condition.
Cell proliferation activity assay
When the confluency of cells in the culture dish reached about 90%, the cells were washed twice with PBS, and then treated with trypsin to become single cells. The cells were counted, and 40µl of the cells was inoculated into each well of a 384-well plate (50 cells/well). The plate was equilibrated at 37 °C and 5% carbon dioxide for 10 to 15 minutes. The compounds were injected into the 384-well plate using Echo550, and positive control and negative control (0.1% DMSO) were set up. Each compound was subjected to a 3-fold dilution, resulting in 10 concentration gradients, in duplicate, and the content of DMSO was 0.1%. The 384-well plate was incubated in a cell culture incubator for 10 days.
Then, 40 µl of cell proliferation assay reagent (CTG) was added to the 384-well plate, and the plate was shaken to mix well. Then, the 384-well plate was incubated at 37 °C and 5% carbon dioxide in the dark for 30 minutes. The data were read using the Envision multifunctional microplate reader. […] According to the different drug concentrations and their corresponding inhibition rates, the GI50 curve was drawn using GraphPad 8.0 software. The data were analyzed, and the final IC50 value was obtained.

GI50 | SMILES
< 10 nM | CN(C(=O)C(=O)Nc1cnc(N)c2c1cnn2C)C1COCc2cc(C34CCOCC3C4)ccc21 (stereo not shown) [Example 197]
< 10 nM | CN(C(=O)C(=O)Nc1cnc(N)c2c1cnn2C)C1COCc2nc(-c3ccccc3)ccc21 (stereo not shown) [Example 219]
10 to 100 nM | CN(C(=O)C(=O)Nc1cnc(N)c2c1cnn2C)C1COCc2cc(C3CCOCC3)ccc21 (stereo not shown) [Example 144]
100 to 1000 nM | CN(C(=O)C(=O)Nc1cnc(N)c2c1cnn2C)C1CCN(c2ccccc2)C1 (stereo not shown) [Example 130]
10 to 100 nM | CN1CCC(c2ccc3c(c2)COCC3N(C)C(=O)C(=O)Nc2cnc(N)c3c2cnn3C)CC1 (stereo not shown) [Example 139]
< 10 nM | CCc1ccc2c(c1)OCC2N(C)C(=O)C(=O)Nc1cnc(N)c2c1cnn2C (stereo not shown) [Example 206]
< 10 nM | CN(C(=O)C(=O)Nc1cnc(N)c2c1cnn2C)C1COCc2cc(-c3ccccc3F)ccc21 (stereo not shown) [Example 215]
10 to 100 nM | CN(C(=O)C(=O)Nc1cnc(N)c2c1cnn2C)C1COc2cc(N3CCOCC3)ccc21 (stereo not shown) [Example 205]
10 to 100 nM | CN(C(=O)C(=O)Nc1cnc(N)c2c1cnn2C)C1COc2cc(-c3ccccc3)ccc21 (stereo not shown) [Example 216]
< 10 nM | CN(C(=O)C(=O)Nc1cnc(N)c2c1cnn2C)C1COCc2cc(C3(C(F)(F)F)CC3)ccc21 (stereo not shown) [Example 237]
10 to 100 nM | CN(C(=O)C(=O)Nc1cnc(N)c2c1cnn2C)C1COCc2cc(OC3CC3)ccc21 (stereo not shown) [Example 171]
< 10 nM | CN(C(=O)C(=O)Nc1cnc(N)c2c1cnn2C)C1COc2cc(-c3cnn(C)c3)ccc21 (stereo not shown) [Example 140-P1]
10 to 100 nM | CN(C(=O)C(=O)Nc1cnc(N)c2c1cnn2C)C1COc2cc(C3CC3)ccc21 (stereo not shown) [Example 193]
< 10 nM | CN(C(=O)C(=O)Nc1cnc(N)c2c1cnn2C)C1COCc2cc(-c3cnc(C(F)(F)F)s3)ccc21 (stereo not shown) [Example 191]
10 to 100 nM | CN(C(=O)C(=O)Nc1cnc(N)c2c1cnn2C)C1COc2cc(C3CCOCC3)ccc21 (stereo not shown) [Example 190]
10 to 100 nM | CN(C(=O)C(=O)Nc1cnc(N)c2c1cnn2C)C1COCc2c1cccc2C(F)(F)F (stereo not shown) [Example 148]
10 to 100 nM | CN(C(=O)C(=O)Nc1cnc(N)c2c1cnn2C)C1COCc2ccc(C(F)(F)F)cc21 (stereo not shown) [Example 134]
< 10 nM | CN(C(=O)C(=O)Nc1cnc(N)c2c1cnn2C)C1COCc2cc(-c3cnn4c3CCC4)ccc21 (stereo not shown) [Example 154]
< 10 nM | CN(C(=O)C(=O)Nc1cnc(N)c2c1cnn2C)C1COCc2nc(-c3ccccc3F)ccc21 (stereo not shown) [Example 225]
< 10 nM | CN(C(=O)C(=O)Nc1cnc(N)c2c1cnn2C)C1COCc2cc(C3(C#N)CC3)ccc21 (stereo not shown) [Example 218]
< 10 nM | CN(C(=O)C(=O)Nc1cnc(N)c2c1cnn2C)C1COCc2cc(Cl)c(Cl)cc21 (stereo not shown) [Example 158]

Second part, the compound before the results:

SMILES | GI50
CCC(C)N(Cc1ccc(C(F)(F)F)nc1)C(=O)C(=O)Nc1cnc(N)c(C)c1 (stereo not shown) [Example 57] | 100 to 1000 nM
CCC(C)N(Cc1ccc(OC2CC2)cn1)C(=O)C(=O)Nc1cnc(N)c(C)c1 (stereo not shown) [Example 83] | 10 to 100 nM
CC(C)N(C(=O)C(=O)Nc1cnc(N)c2c1cnn2C)C1COc2cc(C(F)(F)F)ccc21 (stereo not shown) [Example 116] | 10 to 100 nM
CCC(C)N(Cc1ccc(OC(F)(F)F)cn1)C(=O)C(=O)Nc1cnc(N)c(C)c1 (stereo not shown) [Example 92] | 10 to 100 nM
CN(C(=O)C(=O)Nc1cnc(N)c2c1COC2)C1CCOCc2cc(C(F)(F)F)ccc21 (stereo not shown) [Example 49] | 100 to 1000 nM
CN(C(=O)C(=O)Nc1cnc(N)c2c1cnn2C)C1CCCOC1 (stereo not shown) [Example 129] | 1000 to 10000 nM
CN(C(=O)C(=O)Nc1cnc(N)c2c1cnn2C)C1COCc2cc(C(F)(F)F)cnc21 (stereo not shown) [Example 114] | 100 to 1000 nM
CCC(C)N(Cc1ccc(C#N)c(Cl)n1)C(=O)C(=O)Nc1cnc(N)c(C)c1 (stereo not shown) [Example 77] | 10 to 100 nM
CCC(C)N(Cc1ccn(C)n1)C(=O)C(=O)Nc1cnc(N)c(C)c1 (stereo not shown) [Example 72] | 1000 to 10000 nM
CCCN(C(=O)C(=O)Nc1cnc(N)c2c1cnn2C)C1COCc2cc(C(F)(F)F)ccc21 (stereo not shown) [Example 97] | < 10 nM
CCC(C)N(C(=O)C(=O)Nc1cnc(N)c(C)c1)C(C)c1ccc(C(F)(F)F)cn1 (stereo not shown) [Example 74] | 1000 to 10000 nM
Cn1ncc2c(NC(=O)C(=O)N(C3CC3)C3COc4cc(C(F)(F)F)ccc43)cnc(N)c21 (stereo not shown) [Example 118] | < 10 nM
CCC(C)N(Cc1ncc(C)s1)C(=O)C(=O)Nc1cnc(N)c(C)c1 (stereo not shown) [Example 66] | 1000 to 10000 nM
Cc1cc(NC(=O)C(=O)N(CC(C)C)c2cccc(C(F)(F)F)c2)cnc1N [Example 107] | > 10000 nM
CC(C)Oc1ccc2c(c1)COCC2N(C)C(=O)C(=O)Nc1cnc(N)c2c1cnn2C (stereo not shown) [Example 128] | 10 to 100 nM
CCC(C)N(Cc1ccc(Cl)cn1)C(=O)C(=O)Nc1cnc(N)c(C)c1 (stereo not shown) [Example 61] | 100 to 1000 nM
[2H]C([2H])([2H])N(C(=O)C(=O)Nc1cnc(N)c2c1cnn2C)C1COCc2cc(C(F)(F)F)ccc21 (stereo not shown) [Example 109] | < 10 nM
COC(=O)N1CC=C(c2ccc(CN(C(=O)C(=O)Nc3cnc(N)c(C)c3)[C@H](C)c3ncccn3)nc2)CC1 [Example 84] | 10 to 100 nM

same assay, conditions: HCT116^MTAP Deletion cells, 10 days incubation, CTG readout; read-out: HCT116^MTAP Deletion GI50

GI50 | SMILES
< 10 nM | CN(C(=O)C(=O)Nc1cnc(N)c2c1cnn2C)C1COc2cc(C3=CCOCC3)ccc21 (single isomer, unassigned) [Example 153-P1]
< 10 nM | CN(C(=O)C(=O)Nc1cnc(N)c2c1cnn2C)C1COc2cc(-c3cnn(C4CC4)c3)ccc21 (stereo not shown) [Example 211]
10 to 100 nM | CN(C(=O)C(=O)Nc1cnc(N)c2c1cnn2C)C1COc2cc(-c3cnn(C)c3)ccc21 (stereo not shown) [Example 140-P2]
< 10 nM | Cc1ncc(-c2ccc3c(c2)COCC3N(C)C(=O)C(=O)Nc2cnc(N)c3c2cnn3C)s1 (racemic) [compound 181]
10 to 100 nM | CN(C(=O)C(=O)Nc1cnc(N)c2c1cnn2C)C1COCc2c(F)cc(Cl)cc21 (racemic) [compound 155]
10 to 100 nM | CN(C(=O)C(=O)Nc1cnc(N)c2c1cnn2C)C1COCc2cc(C3=CCOCC3)ccc21 (stereo not shown) [Example 132-P2]
100 to 1000 nM | CC1OCc2c(NC(=O)C(=O)N(C)C3COCc4cc(C(F)(F)F)ccc43)cnc(N)c21 (single isomer, unassigned) [Example 146-P1]
< 10 nM | CN(C(=O)C(=O)Nc1cnc(N)c2c1cnn2C)C1COCc2cc(-c3cnn(C(F)(F)F)c3)ccc21 (racemic) [compound 231]
100 to 1000 nM | CN(C(=O)C(=O)Nc1cnc(N)c2c1cnn2C)C1COc2nc(C(F)(F)F)ccc21 (stereo not shown) [Example 159]

The next lines start with the compound.

SMILES | GI50
Cc1cc(NC(=O)C(=O)N(Cc2ccc(C(F)(F)F)cn2)C2CCCC2)cnc1N [Example 11] | 100 to 1000 nM
CCOc1ccc(CN(C(=O)C(=O)Nc2cnc(N)c(C)c2)[C@H](C)c2ncccn2)nn1 [Example 35] | 10 to 100 nM
Cc1cc(NC(=O)C(=O)N(Cc2ccc(C#N)cn2)[C@H](C)c2ncccn2)cnc1N [Example 28] | 1000 to 10000 nM
CN(C(=O)C(=O)Nc1cnc(N)c2c1cnn2C)C1COCc2cc(-c3cnn(C)c3)ccc21 (stereo not shown) [Example 124-P2] | 10 to 100 nM
CCC(C)N(Cc1ccc(C2=CCN(C(=O)OC)CC2)cn1)C(=O)C(=O)Nc1cnc(N)c(C)c1 (stereo not shown) [Example 125-P2] | < 10 nM
Cc1cc(N)ncc1NC(=O)C(=O)N(Cc1ccc(C(F)(F)F)cn1)[C@H](C)c1ncccn1 [Example 26] | 100 to 1000 nM
CCC(C)N(Cc1ccc(C(F)(F)F)cn1)C(=O)C(=O)Nc1cnc(N)c2c1cnn2C (racemic) [Example 46-P1] | 10 to 100 nM
CC(C)C(C)N(Cc1ccc(C(F)(F)F)cn1)C(=O)C(=O)Nc1cnc(N)c2c1cnn2C (stereo not shown) [Example 110-P2] | < 10 nM
Cc1cc(NC(=O)C(=O)N(Cc2ccc(C(F)(F)F)cn2)c2cnn(C)c2)cnc1N [Example 18] | 100 to 1000 nM
C[C@H](c1ncccn1)N(Cc1ccc(C(F)(F)F)cn1)C(=O)C(=O)Nc1cnc(N)c2cncn12 [Example 38] | > 10000 nM
Cc1cc(NC(=O)C(=O)N(Cc2ccc(C(F)(F)F)cn2)C(C)c2cscn2)cnc1N (single isomer, unassigned) [Example 19-P2] | 10 to 100 nM
Cn1ncc2c(NC(=O)C(=O)N(Cc3ccc(C(F)(F)F)cn3)CC3CC3)cnc(N)c21 [Example 43] | < 10 nM
CCC(C)N(Cc1ccc(C(F)(F)F)cn1)C(=O)C(=O)Nc1cnc(N)c2c1COC2C (stereo not shown) [Example 10] | 10 to 100 nM
Cn1ncc2c(NC(=O)C(=O)N(Cc3ccc(C(F)(F)F)cn3)CC3CCC3)cnc(N)c21 [Example 4] | 10 to 100 nM
C[C@H](c1ncccn1)N(Cc1ccc(C(F)(F)F)cn1)C(=O)C(=O)Nc1cnc(N)c2c1CCCC2 [Example 31] | 100 to 1000 nM
CCC(C)N(Cc1ccc(C(F)(F)F)cn1)C(=O)C(=O)Nc1cnc(N)c2c1cnn2C (stereo not shown) [Example 52] | < 10 nM
